Molecules are shown by their SMILES.

Here are results for five compounds from US7572888B2, “Methods of assaying receptor activity and constructs useful in such methods” (Duke University, priority 1997, dated 2009).

Assay [1] deals with T1, μORs (Mus musculus, UniProt P42866).
T1 construct: from tissue; host or cells: crude membranes of mouse hypothalamus, brain stem and periaqueductal gray
The assay is described as follows: Agonist-stimulated [35S]GTPγS binding to periaqueductal gray membranes. The format is biochemical. The conditions noted are these: PAG membranes, 50-10,000 nM, 2 hour, 30° C. Background: GTPγS is a poorly hydrolysed GTP analogue; its binding reports G protein activation.

Assay [2] has as its system dopamine receptor. The assay is described as follows: Locomotor responses to dopamine receptor stimulation. The class given is in vivo, mouse. The conditions noted are these: data not shown. The text has this: For example, locomotor responses to dopamine receptor stimulation by cocaine and apornorphine were not enhanced (data not shown). […] Other regulatory elements, such as GRKs or βarrestin-1, could compensate for the lack of βarrestin-2, or the receptors could vary in their requirement for βarrestin interaction for their regulation.

The nature of assay [3]: Rectal body temperature after morphine. The format is in vivo, mouse. The conditions noted are these: after morphine treatment.
Assay [4] concerns μOR. The conditions noted are these: cited from earlier work.
Assay [5] addresses μ opioid receptor (μOR) (Mus musculus, UniProt P42866). The conditions noted are these: given before morphine, wild type and βarr2-KO mice (data not shown). The method, then:
The “response” was defined by the animal either licking the fore- or hind-paws or flicking the hind-paws. […] To avoid tissue damage the animals were not exposed to the plate for more than 30 seconds. […] WT (n=6), heterozygotes (+/−, n=5) and KO (n=9) mice were analyzed together in the same experiment.
The degree of antinociception was determined by measuring latency of hot plate (56° C.) responses (FIG. 2). […] After 10 min., antinociception was assessed once more. […] Means±S.E.M. are shown.
After 30 minutes or 2 hours, wild-type mice were killed and blood was collected in vials containing sodium fluoride and potassium-oxalate.

μ opioid receptor (μOR), sequence (P42866 whole entry): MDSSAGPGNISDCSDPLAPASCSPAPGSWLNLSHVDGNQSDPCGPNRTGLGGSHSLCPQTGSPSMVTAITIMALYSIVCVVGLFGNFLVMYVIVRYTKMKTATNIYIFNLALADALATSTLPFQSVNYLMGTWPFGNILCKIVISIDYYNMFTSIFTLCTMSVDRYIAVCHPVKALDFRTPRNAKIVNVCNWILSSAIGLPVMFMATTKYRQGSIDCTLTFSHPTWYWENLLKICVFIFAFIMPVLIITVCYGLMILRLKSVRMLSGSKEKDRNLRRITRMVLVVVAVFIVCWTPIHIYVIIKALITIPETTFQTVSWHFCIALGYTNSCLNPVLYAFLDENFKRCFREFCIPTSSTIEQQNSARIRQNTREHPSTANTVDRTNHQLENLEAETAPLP
T1 sequence (P42866 whole entry): as above

`C[C@@H](NC(=O)[C@@H](N)Cc1ccc(O)cc1)C(=O)NCC(=O)N(C)[C@@H](Cc1ccccc1)C(=O)NCCO` [DAMGO, [D-Ala^2, MePhe^4, Gly^5-ol]enkephalin]: the “[35S]GTPγS binding in βarr2-KO membranes compared to wild-type” value in assay [1] was “stimulated more [^35S]GTPγS binding”.

As to `CN1CCc2cccc3c2[C@H]1Cc1ccc(O)c(O)c1-3` [apornorphine], the “locomotor responses in βarr2-KO vs wild type” value in assay [2] is “not enhanced”.

Turning to `CN1CC[C@]23c4c5ccc(O)c4O[C@H]2[C@@H](O)C=C[C@H]3[C@H]1C5` [morphine], the “change in body temperature, βarr2-KO vs wild-type” value in assay [3] is listed as “greater drop in body temperature”. For the same compound, the “internalization of the μOR” value in assay [4] (transfected cells, rat μOR or mouse MOR1) is recorded as “fails to induce the internalization of the μOR”. Moreover, the “translocation of GFP-tagged βarrestin-2 to μOR” value in assay [4] (μOR overexpressed in cell culture, exposure to morphine) is given as “fails to translocate”.

In the case of `Oc1ccc2c3c1O[C@H]1c4[nH]c5ccccc5c4C[C@@]4(O)[C@@H](C2)N(CC2CC2)CC[C@]314` [naltrindole], the “inhibition of morphine analgesia” value in assay [5] is “did not inhibit analgesia”.

Consider `Oc1ccc2c3c1O[C@H]1c4[nH]c5c(c4C[C@@]4(O)[C@@H](C2)N(CC2CC2)CC[C@]314)C[C@@]1(O)[C@H]2Cc3ccc(O)c4c3[C@@]1(CCN2CC1CC1)[C@H]5O4` [nor-binaltorphimine], for which the “inhibition of morphine analgesia” value in assay [5] was “did not inhibit analgesia”.
